From patent US8748412B2, “Phenylalanine derivatives and their use as non-peptide GLP-1 receptor modulators” (Argusina Bioscience Inc., priority 2011, dated 2014) come the findings set out here.

The target in one experiment is T1, human GLP1R (Homo sapiens, UniProt P43220).
T1 construct: expressed in transfected cells; host or cells: CHO cells (ATCC), transient transfection with pCMV-human GLP1R
T1 sequence (P43220 24-463): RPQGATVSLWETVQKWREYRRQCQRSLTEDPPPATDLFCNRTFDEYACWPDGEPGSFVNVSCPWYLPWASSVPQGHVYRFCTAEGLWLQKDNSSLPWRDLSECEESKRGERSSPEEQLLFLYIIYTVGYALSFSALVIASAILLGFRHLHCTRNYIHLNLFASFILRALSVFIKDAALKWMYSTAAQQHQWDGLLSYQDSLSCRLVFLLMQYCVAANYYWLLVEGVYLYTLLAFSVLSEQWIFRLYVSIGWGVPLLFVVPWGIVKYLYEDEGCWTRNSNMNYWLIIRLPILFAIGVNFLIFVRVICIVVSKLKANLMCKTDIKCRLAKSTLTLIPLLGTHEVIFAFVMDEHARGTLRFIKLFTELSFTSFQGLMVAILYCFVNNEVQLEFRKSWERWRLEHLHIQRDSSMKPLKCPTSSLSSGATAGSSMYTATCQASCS
The experiment can be described thus: Human GLP-1 receptor transfected cell assay (MRE/CRE-luciferase reporter gene, agonist activity). In kind it is cell-based. The note with it: 6 h; concentration 1 μM; read-out: Activity (agonist), percentage of the activity of the control. Here is the method: The glucagon-like peptide I receptor (GLP1R) is a class B Gs-coupled membrane receptor, an agonist of which activates adenylate cyclase (AC) and elevates intracellular cAMP level. In turn, the high content of secondary messengers can activate the cAMP response element binding protein (CREB), which can translocate into nucleus to activate gene transcription.
A reporter gene based screening assay was established to measure the effect of a compound on GLP1R. In this assay, a compound was incubated with CHO cells transiently transfected with a human GLP1R plasmid and a multiple response element (MRE)/cAMP response element (CRE)-driven luciferase reporter plasmid. Once luciferase was induced by the compound, its specific substrate can be activated to produce light signal for measurement.
Materials used in this assay included: (i) cell line: Chinese hamster ovary (CHO) cells (ATCC); (ii) fetal bovine serum (FBS) (Biochrom Co.); (iii) culture medium: RPMI1640 (Invitrogen Co.) supplemented with 10% FBS; (iv) LIPOFECTAMINE™ 2000 Reagent (Invitrogen Co.); (v) plasmids: pCMV-human GLP1R and pGL3-1905 reporter plasmid; (vi) GLP1 (7-36 amide) peptide (Sigma Co.); and (vii) BRIGHT-GLO™ Luciferase Assay System (Promega Co.).
Instruments used in this assay included: (i) Form a carbon dioxide incubator (Thermo Form a Co.); and (ii) Flexstation 3 (Molecular Device Co.).
Before transfection, CHO cells were plated into a 6-well culture plate at 800,000/2 mL/well, and cultured at 37° C. in 5% CO2 overnight. On the transfection day, cells were transfected with receptor plasmid and reporter plasmid using LIPOFECTAMINE™ 2000 reagent. After 6-hour transfection, cells were digested and seeded into 96-well plates at 20,000/100 μL/well. After 14-16 hour incubation, transfected cells were washed with 100 μL serum-free RPMII 640 medium first, and then added 50 μL of the culture medium. The GLP-1 standard and test compounds were respectively diluted to a series of concentrations, which were then added into the above 96-well culture plate at 50 μL/well. The cells were incubated at 37° C. in 5% CO2 for 6 hrs. The activity of luciferase was detected using BRIGHT-GLO™ Luciferase Analytic System, and the reading was performed with a Flexstation3 plate reader machine.
In general terms: A reporter such as luciferase makes a cellular process visible.
Regarding `Cc1ccc(-c2ccc(C(=O)NC(Cc3ccc(-c4noc(-c5ccc(NC(=O)OC(C)(C)C)cc5)n4)c(F)c3)C(=O)O)o2)cc1F` (stereo not shown) [Compound 1N], the activation at 1 µM is over 60%.
The same measure, in the same setting: as for `Cc1ccc(-c2cccc(C(=O)NC(Cc3ccc(-c4noc(-c5ccc(NC(=O)OC(C)(C)C)cc5)n4)c(F)c3)C(=O)O)c2)cc1` (stereo not shown) [Compound 1U], the figure is over 60%; as for `CC(C)(C)OC(=O)Nc1ccc(-c2nc(-c3ccc(CC(NC(=O)c4cccc(-c5ccc(F)cc5)c4)C(=O)O)cc3F)no2)cc1` (stereo not shown) [Compound 1V], 40 to 60%.
Same read-out and setting: as for `Cc1ccc(-c2ccc(C(=O)NC(Cc3ccc(-c4noc(-c5ccc(NC(=O)OC(C)C)cc5)n4)c(F)c3)C(=O)O)o2)cc1` (stereo not shown) [Compound 2D], the figure is 40 to 60%; as for `CC(C)(C)OC(=O)Nc1ccc(-c2nc(-c3ccc(CC(NC(=O)c4cccc(-c5ccc(C6CC6)cc5)c4)C(=O)O)cc3F)no2)cc1` (stereo not shown) [Compound 2L], over 60%.

The same experiment, now with this note: 6 h; concentration 3 μM; read-out: Activity (agonist), percentage of the activity of the control.
With `Cc1ccc(-c2ccc(C(=O)N[C@H](Cc3ccc(F)c(-c4noc(-c5ccc(NC(=O)OC(C)(C)C)cc5)n4)c3)C(=O)O)o2)cc1` [Compound 1E], the activation at 3 µM lay within 40 to 60%.
The same measure, in the same setting: under `Cc1ccc(-c2ccc(C(=O)NC(Cc3ccc(-c4noc(-c5ccc(NC(=O)OC(C)(C)C)cc5C)n4)c(F)c3)C(=O)O)o2)cc1` (stereo not shown) [Compound 1R] stands 20 to 40%; under `CC(C)(C)OC(=O)Nc1ccc(-c2nc(-c3ccc(CC(NC(=O)c4cccc(-c5ccc(C(F)(F)F)cc5)c4)C(=O)O)cc3F)no2)cc1` (stereo not shown) [Compound 1W], over 60%; under `CC(C)(C)OC(=O)Nc1ccc(-c2nc(-c3ccc(CC(NC(=O)c4ccc(-c5ccccn5)s4)C(=O)O)cc3F)no2)cc1` (stereo not shown) [Compound 1X], 40 to 60%.
With `CC(C)(C)OC(=O)Nc1ccc(-c2nc(-c3ccc(CC(NC(=O)/C=C/c4ccc(Cl)c(C(F)(F)F)c4)C(=O)O)cc3F)no2)cc1` (stereo not shown) [Compound 2B], the activation at 3 µM was in the range of 40 to 60%.
The same measure, in the same setting: as for `Cc1ccc(-c2ccc(C(=O)NC(Cc3ccc(-c4noc(-c5ccc(NC(=O)C(C)C)cc5)n4)c(F)c3)C(=O)O)o2)cc1` (stereo not shown) [Compound 2C], the figure is 40 to 60%.
Still for that read-out and setting: as for `Cc1ccc(-c2ccc(C(=O)N[C@H](Cc3cc(C)cc(-c4noc(-c5ccc(NC(=O)OC(C)(C)C)cc5)n4)c3)C(=O)O)o2)cc1` [Compound 2E], the figure is 40 to 60%.

Still in this experiment, the particulars now being: 6 h; concentration 3.16 μM; read-out: Activity (agonist), percentage of the activity of the control.
Take `CC(C)(C)OC(=O)Nc1ccc(C(=O)NC(C)(Cc2ccc(OC(=O)c3ccc(NC(=O)OC(C)(C)C)cc3)c(F)c2)C(=O)O)cc1` (stereo not shown) [Compound 1B]: the activation at 3.16 µM was over 60%.
Consider `CC(C)(C)OC(=O)Nc1ccc(-c2nc(-c3ccc(CC(NC(=O)C4CC4c4ccccc4)C(=O)O)cc3F)no2)cc1` (stereo not shown) [Compound 1D], for which the activation at 3.16 µM lay within 20 to 40%.
As to `Cc1ccc(-c2ccc(C(=O)NC(Cc3ccc(-c4noc(-c5ccc(NC(=O)OC(C)(C)C)cc5)n4)c(F)c3)c3nnn[nH]3)o2)cc1` (stereo not shown) [Compound 1H], the activation at 3.16 µM is over 60%.
Same read-out and setting: under `CN(C)c1ccc(-c2ccc(C(=O)NC(Cc3ccc(-c4noc(-c5ccc(NC(=O)OC(C)(C)C)cc5)n4)c(F)c3)C(=O)O)o2)cc1` (stereo not shown) [Compound 1I] stands over 60%.
Still for that read-out and setting: as for `COc1ccc(-c2ccc(C(=O)NC(Cc3ccc(-c4noc(-c5ccc(NC(=O)OC(C)(C)C)cc5)n4)c(F)c3)C(=O)O)o2)cc1` (stereo not shown) [Compound 1J], the figure is over 60%; as for `CC(C)(C)OC(=O)Nc1ccc(-c2nc(-c3ccc(CC(NC(=O)c4ccc(-c5ccc(Cl)cc5Cl)o4)C(=O)O)cc3F)no2)cc1` (stereo not shown) [Compound 1L], over 60%; as for `CC(C)c1ccc(-c2ccc(C(=O)NC(Cc3ccc(-c4noc(-c5ccc(NC(=O)OC(C)(C)C)cc5)n4)c(F)c3)C(=O)O)o2)cc1` (stereo not shown) [Compound 1O], 20 to 40%.
Turning to `Cc1ccc(-c2ccc(C(=O)NC(Cc3ccc(-c4noc(-c5ccc(NC(=O)OC(C)(C)C)cc5C(F)(F)F)n4)c(F)c3)C(=O)O)o2)cc1` (stereo not shown) [Compound 1P], the activation at 3.16 µM was over 60%.
On the same count and under the same terms, under `Cc1ccc(-c2ccc(C(=O)NC(Cc3ccc(-c4noc(-c5ccc(NC(=O)OC(C)(C)C)cc5)n4)c(F)c3)C(=O)O)o2)cc1Cl` (stereo not shown) [Compound 1Q] stands over 60%; under `CC(C)(C)OC(=O)Nc1ccc(-c2nc(-c3ccc(CC(NC(=O)c4cccc(-c5ccc(C#N)cc5)c4F)C(=O)O)cc3F)no2)cc1` (stereo not shown) [Compound 2J], over 60%.
Same read-out and setting: under `CC(C)c1ccc(-c2cccc(C(=O)NC(Cc3ccc(-c4noc(-c5ccc(NC(=O)OC(C)(C)C)cc5)n4)c(F)c3)C(=O)O)c2)cc1` (stereo not shown) [Compound 2K] stands over 60%; under `CC(C)(C)OC(=O)Nc1ccc(-c2nc(-c3ccc(CC(NC(=O)c4cccc(-c5ccc(C6CC6)cc5)n4)C(=O)O)cc3F)no2)cc1` (stereo not shown) [Compound 2M], over 60%; under `CC(C)(C)OC(=O)Nc1ccc(-c2nc(-c3ccc(CC(NC(=O)c4cccc(-c5ccc(Cl)cc5F)n4)C(=O)O)cc3F)no2)cc1` (stereo not shown) [Compound 2N], over 60%.

The same experiment, now with this note: 6 h; concentration 5 μM; read-out: Activity (agonist), percentage of the activity of the control.
In the case of `Cc1ccc(-c2ccc(C(=O)NC(Cc3ccc(OC(=O)c4ccc(NC(=O)OC(C)(C)C)cc4)c(F)c3)C(=O)O)o2)cc1` (stereo not shown) [Compound 1A], the activation at 5 µM was over 60%.
Still for that read-out and setting: under `CC(C)(C)OC(=O)Nc1ccc(-c2nc(-c3ccc(CC(NC(=O)c4ccnc(Cl)c4)C(=O)O)cc3F)no2)cc1` (stereo not shown) [Compound 1F] stands over 60%.

The same experiment, now with this note: 6 h; concentration 10 μM; read-out: Activity (agonist), percentage of the activity of the control.
Regarding `CC(C)(C)OC(=O)Nc1ccc(-c2nc(-c3ccc(CC(NC(=O)/C=C/c4ccc(F)cc4)C(=O)O)cc3F)no2)cc1` (stereo not shown) [Compound 1C], the activation at 10 µM is over 60%.
Same read-out and setting: under `Cc1ccc(-c2ccc(C(=O)NC(Cc3ccc(-c4noc(-c5ccc(NC(=O)OC(C)(C)C)cc5)n4)c(F)c3)C(=O)O)o2)cc1` (stereo not shown) [Compound 1G, 3-{4-[5-(4-tert-Butoxycarbonylamino-phenyl)-[1,2,4]oxadiazol-3-yl]-3-fluoro-phenyl}-2-[(5-p-tolyl-furan-2-carbonyl)-amino]-propionic acid] stands over 60%.
In the case of `Cc1cccc(-c2ccc(C(=O)NC(Cc3ccc(-c4noc(-c5ccc(NC(=O)OC(C)(C)C)cc5)n4)c(F)c3)C(=O)O)o2)c1` (stereo not shown) [Compound 1K], the activation at 10 µM is over 60%.
On the same count and under the same terms, as for `Cc1cc(-c2ccc(C(=O)NC(Cc3ccc(-c4noc(-c5ccc(NC(=O)OC(C)(C)C)cc5)n4)c(F)c3)C(=O)O)o2)ccc1F` (stereo not shown) [Compound 1M], the figure is over 60%; as for `CC(C)(C)OC(=O)Nc1ccc(-c2nc(-c3ccc(CC(NC(=O)c4cccc(-c5ccc(Cl)cc5)c4F)C(=O)O)cc3F)no2)cc1` (stereo not shown) [Compound 1S], 40 to 60%.
The same measure, in the same setting: as for `CC(C)(C)OC(=O)Nc1ccc(-c2nc(-c3ccc(CC(NC(=O)c4cccc(-c5ccc(F)cc5)n4)C(=O)O)cc3F)no2)cc1` (stereo not shown) [Compound 1T], the figure is 40 to 60%.
Same read-out and setting: as for `CC(C)(C)OC(=O)Nc1ccc(-c2nc(-c3ccc(CC(NC(=O)c4cnc(-c5ccccc5)[nH]4)C(=O)O)cc3F)no2)cc1` (stereo not shown) [Compound 1Y], the figure is over 60%; as for `CC(C)(C)OC(=O)Nc1ccc(-c2nc(-c3ccc(CC(NC(=O)c4cc(-c5ccccc5)cs4)C(=O)O)cc3F)no2)cc1` (stereo not shown) [Compound 1Z], 40 to 60%; as for `CC(C)(C)OC(=O)Nc1ccc(-c2nc(-c3ccc(CC(NC(=O)c4cn(-c5ccc(C(F)(F)F)cc5)nn4)C(=O)O)cc3F)no2)cc1` (stereo not shown) [Compound 2A], over 60%.
Consider `Cc1ccc(-c2cccc(C(=O)NC(Cc3ccc(-c4noc(-c5ccc(NC(=O)OC(C)(C)C)cc5)n4)c(F)c3)C(=O)O)n2)cc1` (stereo not shown) [Compound 2F], for which the activation at 10 µM fell in the range of 10 to 20%.
Still for that read-out and setting: as for `CC(C)(C)OC(=O)Nc1ccc(-c2nc(-c3ccc(CC(NC(=O)c4cccc(-c5ccc(Cl)cc5)c4)C(=O)O)cc3F)no2)cc1` (stereo not shown) [Compound 2G], the figure is 40 to 60%; as for `CCc1ccc(-c2cccc(C(=O)NC(Cc3ccc(-c4noc(-c5ccc(NC(=O)OC(C)(C)C)cc5)n4)c(F)c3)C(=O)O)c2)cc1` (stereo not shown) [Compound 2I], 40 to 60%.
`CSc1ccc(-c2cccc(C(=O)NC(Cc3ccc(-c4noc(-c5ccc(NC(=O)OC(C)(C)C)cc5)n4)c(F)c3)C(=O)O)n2)cc1` (stereo not shown) [Compound 2O]: the activation at 10 µM was over 60%.
